In patent publication US4730006A, “Derivatives of 2,6-diamino-3-haloheptanedioic acid” (Merrell Dow Pharmaceuticals Inc., priority 1986, dated 1988):
In brackets after ≈: the same amount, converted by molar mass. Structures can show the parent of a compound that is named as a salt. Where two headings read alike, the source gives them in different places.

What was measured:
[1] = molecular target: T1, Escherichia coli DAP-epimerase (E.C. 5.1.1.7) (Escherichia coli, UniProt P0A6K1); assay: Inhibition of Escherichia coli DAP-epimerase (E.C. 5.1.1.7); type: biochemical, Escherichia coli (PR7)
T1 construct: endogenous in cells; host or cells: E. coli PR7; Endogenous enzyme purified by ammonium sulfate 30-45%, DE52 and Matrix green A dye-ligand column
T1 sequence (P0A6K1 whole entry): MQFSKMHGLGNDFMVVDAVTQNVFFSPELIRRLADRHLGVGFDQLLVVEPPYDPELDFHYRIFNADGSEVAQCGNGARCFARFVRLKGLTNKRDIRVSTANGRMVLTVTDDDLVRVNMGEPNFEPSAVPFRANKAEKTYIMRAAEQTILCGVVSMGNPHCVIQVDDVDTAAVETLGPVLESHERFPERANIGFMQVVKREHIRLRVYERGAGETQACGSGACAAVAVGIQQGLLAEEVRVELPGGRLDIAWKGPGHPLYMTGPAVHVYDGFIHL
Procedure: Strains were inoculated into Nutrient bath (5 ml) and grown up overnight (16 hours) at 37° C. Small amounts of cells were obtained in shake flask cultures (50 ml-1000 ml) obtained by innoculating Igarashi medium (Igarashi et al., 1979), with 2% of the starter culture. Cells were harvested at late-log (OD 540 nm 0,7-0,8) and rinsed before storage at -20° C. Larger amounts of cells were obtained using an overnight culture (Igarashi medium) of 2,5 l as innoculum for 80 l of Igarashi medium in a Biolaffite Fermenter. Cells were harvested in late-log (OD 540 nm 2.0) using a filtration system for cell concentration (40 fold) followed by centrifugation.
Cells from E. Coli (PR7), usually in batches of 40 g, were suspended in 100 ml buffer A (20 mM potassium phosphate 1 mM EDTA, 1 mM DTT, pH 7.0) by using the Ultraturrax apparatus (10 min). Passage through the French press (20,000 lbs/sq ins) and centrifugation 30,000 xg for 20 min gave the S30 crude extract. The supernatent was fractionated by adding solid ammonium sulfate to 30%, centrifugation was followed by further ammonium sulfate to 45%. The precipitated protein was dissolved in buffer to give a final volume of 10 ml which was dialysed overnight against 2,000 ml of buffer A.
The dialysed crude enzyme preparation was applied to a DEAE-cellulose column (2.3×49 cms) DES52, equilibrated with buffer A. The column was washed with 250 ml of buffer A and eluted with a linear gradiant formed by adding 250 ml of buffer A containing 0,22M KCl to 250 ml of buffer A. The flow rate was 25 ml/hr and 10 ml fractions were collected. DAP-epimerase eluted near the end of the gradiant at approximately 0,20M KCl. Pooled fractions containing DAPepimerase activity were dialysed overnight against 2,000 ml buffer A. Enzyme was concentrated by applying the dialysate to a smal DES52 column (0.9×10 cms), rinsing with 50 ml of buffer A and eluting with buffer A containing 0,50M KCl. The flow-rate was 20 ml/hr and 2,5 ml fractions were collected. Enzyme activity eluted immediately and pooled fractions were dialized against 1,000 ml buffer A.
A final purification step was obtained by applying the concentrated dialysed enzyme to a dye ligand column (1,4×5 cms), Matrix green A, rinsing with 50 ml buffer A and then eluting with 50 ml of buffer A containing 1,2M […] collecting 5 ml fractions. Pooled fractions were dialysed and concentrated on a small DE52 as described above.
(§1) DAP-epimerase activity was routinely measured at 25° C. Reaction mixtures contained 0.1M Tris HCl (pH 7,8), 1 mH EDTA, 1 mM DTT and […] of [G-^3 H]DAP in a total volume of 0.10 ml. After incubation for 40 min, reaction mixtures were quenched with 0.5 ml of 10% TCA and applied to 1 ml of AG50×4 ion-exchange resin (H' form) contained in a column (about 0.4×2 cms) fashioned from a blue pipette cone. The column was washed with 3×0.5 ml of water and the combined eluants counted for radioactivity.
(§2) In vitro DAP-epimerase, purified as described above, was incubated at 25° C. with various concentrations of δ-fluoro-ε-carboxylysine (usually 0, 10, 20, 40, 80 and […]) as described in the enzyme assay above.
*Values determined by Dixon plots (Ref. Dixon, M., 1972).

[2] = molecular target: T2, DAP-epimerase (EC 5.1.1.7) (Pseudomonas aeruginosa, UniProt Q51564); assay: Inhibition of DAP-epimerase partially purified from Pseudomonas aerogenosa; type: biochemical, Pseudomonas aerogenosa (ATCC 25619); conditions: enzyme partially purified from P. aerogerosa (ATCC 25619) through to the first DE52 column
T2 construct: **DAPepimerase was partially purified from each organism as described; endogenous in cells; host or cells: Pseudomonas aeruginosa ATCC 25619; Purified through the first DE52 column
T2 sequence (Q51564 1-276): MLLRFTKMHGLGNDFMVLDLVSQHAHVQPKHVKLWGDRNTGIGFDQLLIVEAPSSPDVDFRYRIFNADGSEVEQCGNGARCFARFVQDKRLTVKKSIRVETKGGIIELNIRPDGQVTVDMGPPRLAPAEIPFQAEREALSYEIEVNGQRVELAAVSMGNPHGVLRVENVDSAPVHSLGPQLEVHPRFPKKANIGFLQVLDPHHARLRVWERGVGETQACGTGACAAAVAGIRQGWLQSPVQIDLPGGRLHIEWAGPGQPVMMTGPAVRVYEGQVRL
Procedure: as §1, §2
(§3) **DAPepimerase was partially purified from each organism as described
(§4) (Example VII) through to the first DE52 column except that with Aerobacte

[3] = molecular target: T3, DAP-epimerase (EC 5.1.1.7) (Serratia marcescens, UniProt A0A0G3SSC4); assay: Inhibition of DAP-epimerase partially purified from Serratia marcescens; type: biochemical, Serratia marcescens (ATCC 8100); conditions: enzyme partially purified from S. marcescens (ATCC 8100) through to the first DE52 column
T3 sequence (A0A0G3SSC4 1-274): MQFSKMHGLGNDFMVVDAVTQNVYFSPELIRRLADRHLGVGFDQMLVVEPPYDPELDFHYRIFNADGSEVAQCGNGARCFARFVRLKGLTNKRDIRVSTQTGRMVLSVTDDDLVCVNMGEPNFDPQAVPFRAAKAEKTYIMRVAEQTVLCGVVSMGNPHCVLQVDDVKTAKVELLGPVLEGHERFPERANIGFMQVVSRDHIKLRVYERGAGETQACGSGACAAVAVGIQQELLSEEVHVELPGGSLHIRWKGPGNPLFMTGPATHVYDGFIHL
Procedure: as §1, §2, §3, §4

[4] = system: S. marcescens (ATCC 8100); assay: MIC, serial dilutions in plates, S. marcescens; type: cell-based; conditions: Serratia marcescens, ATCC8100
Procedure: (§5) The antibacterial spectrum and minimal inhibitory concentration (MIC) of typical compounds of the present invention are determined by one or more standard techniques. Thus, for example, serial dilutions of the compound being tested are made in tubes of rich medium containing no peptide […] (Atherton et al., 1979) or in plates containing the same medium plus agar. Series of tubes or plates of agar containing different concentrations of the test compound are inoculated with the cultures utilized to determine activity. After incubation for 24 hours at 37° C., the inoculated tubes or agar plates are examined for the inhibition of bacterial growth and an MIC is determined therefrom.
(§6) The following example illustrates the in vitro activity of the compounds of this invention against a variety of pathogenic organisms.
(§7) *Serial dilutions in plates as described by Atherton et al. (1979).

E. coli (PR7) = assay: MIC, serial dilutions in plates, E. coli; type: cell-based; conditions: Escherichia coli
Procedure: as §5, §6, §7

[5] = system: P. aerogerosa (ATCC 25619); assay: MIC, serial dilutions in plates, P. aerogerosa; type: cell-based
Procedure: as §5, §6, §7

A. aerogenes (62.1) = assay: MIC, serial dilutions in plates, A. aerogenes; type: cell-based; conditions: Klebsiella aerogenes
Procedure: as §5, §6, §7

[6] = In vivo studies: serum levels in mice by bioassay; design: species or system CFW mice; conditions: for Serum half-life: mice
Procedure: Groups of 3 fasted CFW mice (20 g±2) were dosed subcutaneously with 20, 50 or 100 mg/kg or orally with 50 or 100 mg/kg of δ-fluoro-ε-carboxylysyl-L-alanyl-L-alanine. At intervals of from 10 min to 210 min, after dosing animals were anesthetised with ether, and heparinized blood samples obtained by eye-puncture. Samples were kept on ice and the plasma removed. After dilution (1:1) with saline, aliquots were assayed for δ-fluoro-ε-carboxylysyl-L-alanyl-alanine by bioassay.
The antibacterial activity of δ-fluoro-ε-carboxylysyl-L-alanyl-alanine was determined by plate assay on "Roche" agar medium (adjusted to pH 6,5-see Atherton et al. (1979) using Aerobacter aerogenes as the test strain. Standard solutions of δ-fluoro-ε-carboxylysyl-L-alanyl-alanine were prepared by suitable dilutions in water (from the same solution used for injection) and 0,4 μg to 7,0 μg were applied to sterile discs (9 mm dia.) concomittently with serum samples. After overnight incubation at 37° C., zones of inhibition were measured across two diameters. A standard plot of zone diameter vs log. concentration of standards was prepared. The average serum concentration of δ-fluoro-ε-carboxylysyl-L-alanyl-alanine from 3 mice was taken from this standard plot. Control serum had no activity and 50% serum had no effect on the standard plot.

| MIC [4] [µg/mL] | MIC (E. coli (PR7)) [µg/mL] | MIC [5] [µg/mL] | MIC (A. aerogenes (62.1)) [µg/mL] | Compound | Ki [1] [µM] | further results |
| --- | --- | --- | --- | --- | --- | --- |
|  |  |  |  | NC(CCC(F)C(N)C(=O)O)C(=O)O (stereo not drawn) [δ-fluoro-ε-carboxylysine, 3-fluoro-2,6-diaminopimelic acid] | 7.7 | IC50 [1]: 1.35 µM; Inhibition after aliquots were removed and diluted 50-fold with the assay medium ([1]; in vitro, enzyme incubated with inhibitor at 25° C., then diluted 50-fold): no inhibition was observed; Ki [2]: 5.4 µM; Ki [3]: 1 µM |
|  |  |  |  | NC(CCC(Cl)C(N)C(=O)O)C(=O)O (stereo not drawn) [δ-chloro-ε-carboxylysine, 1,5-diamino-2-chloro-1,5-pentanedicarboxylic acid, dihydrochloride] | 0.5 |  |
|  |  |  |  | NC(CCC(F)(F)C(N)C(=O)O)C(=O)O (stereo not drawn) [δ,δ-difluoro-ε-carboxylysine, 1,5-diamino-2,2-difluoro-1,5-pentanedicarboxylic acid, dihydrochloride] |  | IC50 ([1]; purified E. coli DAP-epimerase, 25° C., read-out: IC50): 50 µM |
| 0.2 (≈ 0.716 µM) | 12.5 (≈ 44.8 µM) | 0.8 (≈ 2.86 µM) | 6 (≈ 21.5 µM) | C[C@H](NC(=O)[C@@H](N)CCC(F)C(N)C(=O)O)C(=O)O (stereo partly drawn) [δ-fluoro-ε-carboxylysylalanine, δ-Fluoro-ε-carboxylysyl-L-alanine] |  |  |
| 0.2 (≈ 0.571 µM) | 12.5 (≈ 35.7 µM) | 100 (≈ 285 µM) | 12.5 (≈ 35.7 µM) | C[C@H](NC(=O)[C@H](C)NC(=O)[C@@H](N)CCC(F)C(N)C(=O)O)C(=O)O (stereo partly drawn) [δ-FLUORO-ε-CARBOXYLYSYL-L-ALANYL-L-ALANINE] |  | Serum half-life ([6]; P.O. (printed on the 50 mg/kg line)): 1.07 h; Serum half-life ([6]; S.C. (printed on the 50 mg/kg line)): 1.2 h; Serum levels compared with minimum inhibition concentrations of infectious microorganisms ([6]; mouse, in vivo): consistently above the minimum inhibition concentrations |
